Laboratory results taken from patent US10925283B2, “Microbiocidal phenylamidine derivatives” (SYNGENTA PARTICIPATIONS AG, priority 2016, dated 2021).

Legend:
Format in all cases: in vivo
[1] = system: Puccinia recondita f. sp. tritici; assay: Puccinia recondita f. sp. tritici / wheat / leaf disc preventative (brown rust); details: foliar, wheat leaf segments cv. Kanzler, inoculated 1 day after application, assessed 7-9 days after application, read-out: control of Puccinia recondita f. sp. tritici (percent disease control compared to untreated)
Description: Puccinia recondita f. Sp. Tritici/Wheat/Leaf Disc Preventative (Brown Rust) Wheat leaf segments cv. Kanzler are placed on agar in multiwell plates (24-well format) and sprayed with the formulated test compound diluted in water. The leaf disks are inoculated with a spore suspension of the fungus 1 day after application. The inoculated leaf segments are incubated at 19° C. and 75% rh under a light regime of 12 h light/12 h darkness in a climate cabinet and the activity of a compound is assessed as percent disease control compared to untreated when an appropriate level of disease damage appears in untreated check leaf segments (7-9 days after application).

Phakopsora pachyrhizi = Phakopsora pachyrhizi / soybean / preventative (soybean rust); details: foliar, soybean leaf disks, inoculated one day after application, assessed 12-14 days after application, read-out: control of Phakopsora pachyrhizi (percent disease control compared to untreated)
Description: Phakopsora pachyrhizi/Soybean/Preventative (Soybean Rust) Soybean leaf disks are placed on water agar in multiwell plates (24-well format) and sprayed with the formulated test compound diluted in water. One day after application leaf discs are inoculated by spraying a spore suspension on the lower leaf surface. After an incubation period in a climate cabinet of 24-36 hours in darkness at 20° C. and 75% rh leaf disc are kept at 20° C. with 12 h light/day and 75% rh. The activity of a compound is assessed as percent disease control compared to untreated when an appropriate level of disease damage appears in untreated check leaf disks (12-14 days after application).

[2] = system: Blumeria graminis f. sp. tritici (Erysiphe graminis f. sp. tritici); assay: Blumeria graminis f. sp. tritici / wheat / leaf disc preventative (powdery mildew on wheat); details: foliar, wheat leaf segments cv. Kanzler, inoculated 1 day after application, assessed 6-8 days after application, read-out: control of Blumeria graminis f. sp. tritici (percent disease control compared to untreated)
Description: Blumeria graminis f. sp. tritici (Erysiphe graminis f. sp. tritici)/Wheat/Leaf Disc Preventative (Powdery Mildew on Wheat) Wheat leaf segments cv. Kanzler are placed on agar in a multiwell plate (24-well format) and sprayed with the formulated test compound diluted in water. The leaf disks are inoculated by shaking powdery mildew infected plants above the test plates 1 day after application. The inoculated leaf disks are incubated at 20° C. and 60% rh under a light regime of 24 h darkness followed by 12 h light/12 h darkness in a climate chamber and the activity of a compound is assessed as percent disease control compared to untreated when an appropriate level of disease damage appears on untreated check leaf segments (6-8 days after application).

[3] = system: Puccinia recondita f. sp. tritici; assay: Puccinia recondita f. sp. tritici / wheat / leaf disc curative (brown rust); details: foliar, wheat leaf segments cv. Kanzler, compound applied 1 day after inoculation, assessed 6-8 days after application, read-out: control of Puccinia recondita f. sp. tritici (percent disease control compared to untreated)
Description: Puccinia recondita f. Sp. Tritici/Wheat/Leaf Disc Curative (Brown Rust) Wheat leaf segments cv. Kanzler are placed on agar in multiwell plates (24-well format). The leaf segments are inoculated with a spore suspension of the fungus. Plates are stored in darkness at 19° C. and 75% rh. The formulated test compound diluted in water is applied 1 day after inoculation. The leaf segments are incubated at 19° C. and 75% rh under a light regime of 12 h light/12 h darkness in a climate cabinet and the activity of a compound is assessed as percent disease control compared to untreated when an appropriate level of disease damage appears in untreated check leaf segments (6-8 days after application).

Measured: pest or weed control at 200 ppm

CCN(C)/C=N/c1cc(OC)c(C(O)(COCCc2ccccc2)C(F)(F)F)cc1C (stereo not shown) [E.021, N-ethyl-N′-[5-methoxy-2-methyl-4-[2,2,2-trifluoro-1-hydroxy-1-(2-phenylethoxymethyl)ethyl]phenyl]-N-methyl-formamidine]
≥ 80%: all assays above

CCN(C)/C=N/c1cc(OC)c(C(O)(C2CCC(OC)CC2)C(F)(F)F)cc1C (stereo not shown) [E.075, N-ethyl-N′-[5-methoxy-2-methyl-4-[2,2,2-trifluoro-1-hydroxy-1-(4-methoxycyclohexyl)ethyl]phenyl]-N-methyl-formamidine]
≥ 80%: all assays above

CCN(C)/C=N/c1cc(OC)c(C(O)(CON=C2CCCCC2)C(F)(F)F)cc1C (stereo not shown) [E.037, N′-[4-[1-[(cyclohexylideneamino)oxymethyl]-2,2,2-trifluoro-1-hydroxy-ethyl]-5-methoxy-2-methyl-phenyl]-N-ethyl-N-methyl-formamidine]
≥ 80%: all assays above

CCO/N=C/CC(O)(c1cc(C)c(/N=C/N(C)CC)cc1OC)C(F)(F)F (stereo not shown) [E.056, N′-[4-[(3E)-3-ethoxyimino-1-hydroxy-1-(trifluoromethyl)propyl]-5-methoxy-2-methyl-phenyl]-N-ethyl-N-methyl-formamidine]
≥ 80%: all assays above

CCN(C)/C=N/c1cc(OC)c(C(O)(COc2ccccc2)C(F)(F)F)cc1C (stereo not shown) [E.047, N-ethyl-N′-[5-methoxy-2-methyl-4-[2,2,2-trifluoro-1-hydroxy-1-(phenoxymethyl)ethyl]phenyl]-N-methyl-formamidine]
≥ 80%: all assays above

CCOCC(O)(c1cc(C)c(/N=C/N(C)CC)cc1OC)C(F)(F)F (stereo not shown) [E.002, N′-[4-[1-(ethoxymethyl)-2,2,2-trifluoro-1-hydroxy-ethyl]-5-methoxy-2-methyl-phenyl]-N-ethyl-N-methyl-formamidine]
≥ 80%: all assays above

CCN(C)/C=N/c1cc(OC)c(C(O)(COC2CCC(C)CC2)C(F)(F)F)cc1C (stereo not shown) [E.042, N-ethyl-N′-[5-methoxy-2-methyl-4-[2,2,2-trifluoro-1-hydroxy-1-[(4-methylcyclohexoxy)methyl]ethyl]phenyl]-N-methyl-formamidine]
≥ 80%: all assays above

CCCOCC(O)(c1cc(C)c(/N=C/N(C)CC)cc1OC)C(F)(F)F (stereo not shown) [E.014, N-ethyl-N′-[5-methoxy-2-methyl-4-[2,2,2-trifluoro-1-hydroxy-1-(propoxymethyl)ethyl]phenyl]-N-methyl-formamidine]
≥ 80%: all assays above

CCN(C)/C=N/c1cc(OC)c(C(O)(C2CCOCC2)C(F)(F)F)cc1C (stereo not shown) [E.055, N-ethyl-N′-[5-methoxy-2-methyl-4-(2,2,2-trifluoro-1-hydroxy-1-tetrahydropyran-4-yl-ethyl)phenyl]-N-methyl-formamidine]
≥ 80%: all assays above

CCN(C)/C=N/c1cc(OC)c(C(O)(CSCc2ccccc2)C(F)(F)F)cc1C (stereo not shown) [E.069, N′-[4-[1-(benzylsulfanylmethyl)-2,2,2-trifluoro-1-hydroxy-ethyl]-5-methoxy-2-methyl-phenyl]-N-ethyl-N-methyl-formamidine]
≥ 80%: all assays above

C#CCOCC(O)(c1cc(C)c(/N=C/N(C)CC)cc1OC)C(F)(F)F (stereo not shown) [E.041, N-ethyl-N′-[5-methoxy-2-methyl-4-[2,2,2-trifluoro-1-hydroxy-1-(prop-2-ynoxymethyl)ethyl]phenyl]-N-methyl-formamidine]
≥ 80%: all assays above

CCN(C)/C=N/c1cc(OC)c(C(O)(COC(C)c2ccccc2)C(F)(F)F)cc1C (stereo not shown) [E.028, N-ethyl-N′-[5-methoxy-2-methyl-4-[2,2,2-trifluoro-1-hydroxy-1-(1-phenylethoxymethyl)ethyl]phenyl]-N-methyl-formamidine]
≥ 80%: all assays above

CCN(C)/C=N/c1cc(OC)c(C(O)(COCC(C)C)C(F)(F)F)cc1C (stereo not shown) [E.046, N-ethyl-N′-[5-methoxy-2-methyl-4-[2,2,2-trifluoro-1-hydroxy-1-(isobutoxymethyl)ethyl]phenyl]-N-methyl-formamidine]
≥ 80%: all assays above

CCCOCCC(O)(c1cc(C)c(/N=C/N(C)CC)cc1OC)C(F)(F)F (stereo not shown) [E.052, N-ethyl-N′-[4-[1-hydroxy-3-propoxy-1-(trifluoromethyl)propyl]-5-methoxy-2-methyl-phenyl]-N-methyl-formamidine]
≥ 80%: all assays above

CCN(C)/C=N/c1cc(OC)c(C(O)(COCc2ccc(C)cc2)C(F)(F)F)cc1C (stereo not shown) [E.027, N-ethyl-N′-[5-methoxy-2-methyl-4-[2,2,2-trifluoro-1-hydroxy-1-(p-tolylmethoxymethyl)ethyl]phenyl]-N-methyl-formamidine]
≥ 80%: all assays above

CCN(C)/C=N/c1cc(OC)c(C(O)(CCOc2ccccc2)C(F)(F)F)cc1C (stereo not shown) [E.054, N-ethyl-N′-[4-[1-hydroxy-3-phenoxy-1-(trifluoromethyl)propyl]-5-methoxy-2-methyl-phenyl]-N-methyl-formamidine]
≥ 80%: all assays above

CCN(C)/C=N/c1cc(OC)c(C(O)(COC2CCCCC2)C(F)(F)F)cc1C (stereo not shown) [E.039, N′-[4-[1-(cyclohexoxymethyl)-2,2,2-trifluoro-1-hydroxy-ethyl]-5-methoxy-2-methyl-phenyl]-N-ethyl-N-methyl-formamidine]
≥ 80%: all assays above

CCN(C)/C=N/c1cc(OC)c(C(O)(CSc2ccc(F)cc2)C(F)(F)F)cc1C (stereo not shown) [E.068, N-ethyl-N′-[5-methoxy-2-methyl-4-[2,2,2-trifluoro-1-[(4-fluorophenyl)sulfanylmethyl]-1-hydroxy-ethyl]phenyl]-N-methyl-formamidine]
≥ 80%: all assays above

CCCOC1CCC(C(O)(c2cc(C)c(/N=C/N(C)CC)cc2OC)C(F)(F)F)CC1 (stereo not shown) [E.079, N-ethyl-N′-[5-methoxy-2-methyl-4-[2,2,2-trifluoro-1-hydroxy-1-(4-propoxycyclohexyl)ethyl]phenyl]-N-methyl-formamidine]
≥ 80%: all assays above
